Data on one molecule can be found in publication PMC7268545, “Development of a QPatch-Automated Electrophysiology Assay for Identifying TMEM16A Small-Molecule Inhibitors” (Assay and Drug Development Technologies, 2020).

The assay has as its target T1, abc isoform of TMEM16A (Homo sapiens, UniProt Q5XXA6, DEL476-501).
T1 construct: expressed in transfected cells; host or cells: HEK293T
T1 sequence (Q5XXA6 with tags, fused parts or gaps isoform Q5XXA6-5 DEL539-564): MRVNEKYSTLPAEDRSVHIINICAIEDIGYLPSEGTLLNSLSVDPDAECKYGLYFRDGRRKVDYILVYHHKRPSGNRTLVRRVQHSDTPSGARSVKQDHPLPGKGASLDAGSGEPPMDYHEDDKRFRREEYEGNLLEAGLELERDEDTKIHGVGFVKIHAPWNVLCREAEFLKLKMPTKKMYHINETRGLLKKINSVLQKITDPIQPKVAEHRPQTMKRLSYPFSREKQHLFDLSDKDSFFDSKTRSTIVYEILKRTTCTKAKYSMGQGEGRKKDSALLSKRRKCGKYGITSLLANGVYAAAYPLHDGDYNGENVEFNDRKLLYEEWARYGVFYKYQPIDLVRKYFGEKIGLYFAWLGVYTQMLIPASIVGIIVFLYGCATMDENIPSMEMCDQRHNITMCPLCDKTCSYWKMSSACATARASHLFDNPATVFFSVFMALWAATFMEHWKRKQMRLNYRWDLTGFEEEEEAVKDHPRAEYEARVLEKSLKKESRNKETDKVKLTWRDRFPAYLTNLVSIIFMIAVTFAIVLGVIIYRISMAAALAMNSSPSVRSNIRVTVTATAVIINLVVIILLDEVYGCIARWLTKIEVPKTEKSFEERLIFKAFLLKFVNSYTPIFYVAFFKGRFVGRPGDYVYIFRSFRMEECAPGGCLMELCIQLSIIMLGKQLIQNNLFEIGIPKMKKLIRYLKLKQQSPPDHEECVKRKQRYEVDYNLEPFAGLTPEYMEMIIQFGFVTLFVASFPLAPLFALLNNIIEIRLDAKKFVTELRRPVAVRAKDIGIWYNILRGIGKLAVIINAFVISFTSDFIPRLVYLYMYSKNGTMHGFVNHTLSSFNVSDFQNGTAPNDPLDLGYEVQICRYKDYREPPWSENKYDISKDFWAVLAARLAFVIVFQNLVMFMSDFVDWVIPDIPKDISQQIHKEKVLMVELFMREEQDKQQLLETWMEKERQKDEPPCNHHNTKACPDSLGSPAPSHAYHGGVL
The assay is described as follows: QPatch-48 assay on HEK293T cell line stably expressing the abc isoform. The assay is classed as cell-based. Particulars: 30 μM. The procedure:
Using the QPatch-48, we have developed a robust assay for the assessment of TMEM16A small-molecule inhibitors. Many optimization steps were performed to determine the optimal cell culture conditions, internal calcium level, holding potential and voltage protocol, and maximum duration of the assay. It was necessary to control for the culture conditions of the cells and strictly adhere to the cell preparation procedure to obtain high-quality seals. In addition, while the external solution can be used throughout the day, the internal solution should be replaced every 2 h to ensure that the ATP is fresh. Best practices also require solutions to be made weekly and for the osmolarity and pH to be measured accurately. Having met these conditions, the assay results in large currents, averaging a peak current of 6 nA, while maintaining outward rectification that is characteristic of the TMEM16A channel. The benchmark TMEM16A inhibitors that were tested during the validation efforts generated reproducible and expected IC50 values. […] Another HEK293T cell line that stably expressed the abc isoform of TMEM16A also formed high-quality seals and produced large currents.
Background: Patch clamp records ionic current or voltage across a cell membrane.

As for `CCc1oc2ccccc2c1C(=O)c1cc(Br)c(O)c(Br)c1` [Benzbromarone], the block of currents result is listed as “fully blocked”.
